The test system of series [1] is ECa-109 cell line. In words: Induction of apoptosis in human EC109 cells assessed as necrotic cells at 5 uM incubated for 48 hrs by Annexin V/PI staining based flow cytometry method (reference value: 0.73%). In kind it is functional.
Series [2] relates to ECa-109 cell line. Briefly: Induction of apoptosis in human EC109 cells assessed as early apoptotic cells at 5 uM incubated for 48 hrs by Annexin V/PI staining based flow cytometry method (reference value: 1.36%). In kind it is functional.
Series [3] deals with ECa-109 cell line. In words: Induction of apoptosis in human EC109 cells assessed as late apoptotic cells at 5 uM incubated for 48 hrs by Annexin V/PI staining based flow cytometry method (reference value: 6.17%). In kind it is functional.
Series [4] relates to HepG2. In words: Induction of apoptosis in human HepG2 cells assessed as necrotic cells at 5 uM incubated for 48 hrs by Annexin V/PI staining based flow cytometry method (reference value: 0.57%). In kind it is functional.
Series [5] has as its system ECa-109 cell line. Briefly: Induction of cell cycle arrest in human EC109 cells assessed as downregulation of cyclin D1 protein expression by Western blotting analysis. In kind it is functional, cell-based. To be noted: dose 2.5-20 µM, DDE = dose-dependent effect.
The subject of series [6] is HepG2. In words: Induction of apoptosis in human HepG2 cells assessed as viable cells at 5 uM incubated for 48 hrs by Annexin V/PI staining based flow cytometry method (reference value: 92.5%). The settings on record: read-out: Activity. In kind it is functional.
Series [7] can be described thus: Cytotoxicity against HEK-Blue IL-6 cells. Type of series: toxicity, cell-based. To be noted: human.
The test system of series [8] is ECa-109 cell line. Briefly: Induction of apoptosis in human EC109 cells assessed as late apoptotic cells at 20 uM incubated for 48 hrs by Annexin V/PI staining based flow cytometry method (reference value: 6.17%). In kind it is functional.
Series [9] deals with HepG2. Briefly: Induction of apoptosis in human HepG2 cells assessed as viable cells at 10 uM incubated for 48 hrs by Annexin V/PI staining based flow cytometry method (reference value: 92.5%). To be noted: read-out: Activity. Type of series: functional.
For series [10], the system named is HepG2. In words: Inhibition of cell migration in human HepG2 cells incubated for 48 hrs by microscopic analysis based wound healing assay. Type of series: functional. To be noted: dose 5-10 µM, DDE = dose-dependent effect.
The test system of series [11] is HepG2. Briefly: Antitumor activity against human HepG2 cells xenografted in BALB/c athymic nude mouse assessed as tumor growth inhibition at 20 mg/kg, ip administered daily for 24 days relative to control. In kind it is functional. To be noted: HepG2, 576 h, time 24 day, read-out: TGI.
The target of series [12] is Signal transducer and activator of transcription 3 (Homo sapiens) (UniProt P40763). Briefly: Inhibition of IL-6 induced STAT3 phosphorylation at Tyr705 residue in human HepG2 cells preincubated for 16 hrs followed by IL-6 stimulation for 30 mins by Western blot analysis. Type of series: cell-based. To be noted: dose 2.5-20 µM, DDE = dose-dependent effect.
The test system of series [13] is ECa-109 cell line. In words: Induction of apoptosis in human EC109 cells assessed as viable cells at 20 uM incubated for 48 hrs by Annexin V/PI staining based flow cytometry method (reference value: 91.7%). In kind it is functional. To be noted: read-out: Activity.
Series [14] has as its system HepG2. In words: Induction of cell cycle arrest in human HepG2 cells assessed as accumulation of cells at G0/G1 phase incubated for 24 hrs by flow cytometric analysis (reference value: 66.65%). In kind it is functional.
In series [15] the test system is HepG2. In words: Antitumor activity against human HepG2 cells assessed as reduction in cell viability incubated for 72 hrs by MTT assay. In kind it is functional, cell-based. The settings on record: HepG2, 72 h.
Series [16] relates to HepG2. Briefly: Induction of apoptosis in human HepG2 cells assessed as late apoptotic cells at 5 uM incubated for 48 hrs by Annexin V/PI staining based flow cytometry method (reference value: 3.64%). Type of series: functional.
For series [17], the system named is HepG2. Briefly: Induction of apoptosis in human HepG2 cells assessed as early apoptotic cells at 20 uM incubated for 48 hrs by Annexin V/PI staining based flow cytometry method (reference value: 3.31%). Type of series: functional.
Series [18] deals with ECa-109 cell line. In words: Induction of apoptosis in human EC109 cells assessed as necrotic cells at 10 uM incubated for 48 hrs by Annexin V/PI staining based flow cytometry method (reference value: 0.73%). Type of series: functional.

Signal transducer and activator of transcription 3 (Homo sapiens), sequence (P40763 whole entry): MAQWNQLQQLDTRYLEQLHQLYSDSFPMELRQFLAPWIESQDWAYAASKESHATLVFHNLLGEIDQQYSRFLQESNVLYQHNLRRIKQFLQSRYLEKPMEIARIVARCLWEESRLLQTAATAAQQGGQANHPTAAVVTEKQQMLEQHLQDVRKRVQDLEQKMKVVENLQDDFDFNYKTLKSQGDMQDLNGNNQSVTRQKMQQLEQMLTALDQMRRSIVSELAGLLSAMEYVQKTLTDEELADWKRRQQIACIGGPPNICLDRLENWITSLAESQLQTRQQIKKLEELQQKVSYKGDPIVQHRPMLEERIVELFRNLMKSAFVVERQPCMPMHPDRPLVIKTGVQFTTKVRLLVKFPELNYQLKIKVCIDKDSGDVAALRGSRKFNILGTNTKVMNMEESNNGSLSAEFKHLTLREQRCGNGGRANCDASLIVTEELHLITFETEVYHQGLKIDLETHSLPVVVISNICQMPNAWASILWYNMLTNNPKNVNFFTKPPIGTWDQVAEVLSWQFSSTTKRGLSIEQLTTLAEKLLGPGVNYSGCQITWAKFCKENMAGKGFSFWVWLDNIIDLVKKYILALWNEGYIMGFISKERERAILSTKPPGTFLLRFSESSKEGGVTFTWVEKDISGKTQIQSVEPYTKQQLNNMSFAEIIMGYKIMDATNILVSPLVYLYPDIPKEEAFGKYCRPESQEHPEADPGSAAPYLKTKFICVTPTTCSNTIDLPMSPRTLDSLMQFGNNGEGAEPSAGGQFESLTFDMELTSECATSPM

Take `CCCn1c(-c2cccc(OC)c2)nc2cc3nc(-c4cccc(OC)c4)n(CCC)c3cc21`: the Activity in the series on ECa-109 cell line [1] is 0.87%; with ECa-109 cell line [2], 2.27%; in the series on ECa-109 cell line [3] it was 11%; with HepG2 [4], 1.54%; in the series with ECa-109 cell line [5], “Dde”; in the series with ECa-109 cell line [8] it was 31.4%. In addition, the Activity came out at 74.51% with HepG2 [14], 13.4% in the series with HepG2 [16], 29.9% in the series on HepG2 [17] and 1.1% with ECa-109 cell line [18]. Moreover, the viability at 5 µM with HepG2 [6] amounted to 76.6%. For the same compound, the values for the IC50 (in series [7]; in the series with HepG2 [15]) were above 10 µM and 4.3 µM, respectively. Further, the viability at 10 µM in the series with HepG2 [9] came out at 39.5%. Besides, the inhibition entry (in the series with HepG2 [10]; in [12]) was “Dde” throughout. For the same compound, the inhibition in vivo at 20 mg/kg in the series on HepG2 [11] amounted to 42.5%. In addition, the viability at 20 µM in the series with ECa-109 cell line [13] is 46.8%.

Values taken from ChEMBL document CHEMBL5143695, “Benzobis(imidazole) derivatives as STAT3 signal inhibitors with antitumor activity” (Bioorg Med Chem, 2022).
